This note sets out measurements from ChEMBL document CHEMBL1149589, “The influence of the long chain fatty acid on the antagonistic activities of Rhizobium sin-1 lipid A” (Bioorg Med Chem, 2007).

The assay concerns MONO-MAC-6. Kind of assay: Antagonistic activity against Escherichia coli LPS-induced TNFalpha production in human Mono Mac 6 cells after 5.5 hrs. It counts as functional, cell-based. The settings on record: for pIC50: Homo sapiens, MONO-MAC-6, 5.5 h.

pIC50: −log10 of the molar value. Calls of active or inactive are those of the source. The calls are words filed in the database; no cut-off is given here.

As usually defined, the Inhibition is the change of the read-out against control, counted positive when it falls. A lower Inhibition goes with little suppression. What is called pIC50 is the IC50 on a negative log10 scale, so that one unit is a factor of ten. In the case of `CCCCCCCCCCCCC[C@@H](O)CC(=O)N[C@H]1C(=O)O[C@H](CO[C@@H]2O[C@H](CO)[C@@H](O)[C@H](OC(=O)C[C@H](O)CCCCCCCCCCCCC)[C@H]2NC(=O)C[C@@H](CCCCCCCCCCCCC)OC(=O)CCCCCCCCCCCCCCCCCCCCCCCCCC(C)O)[C@@H](O)[C@@H]1OC(=O)C[C@H](O)CCCCCCCCCCCCC` (some centres undefined), the Inhibition was found to be 86% and the pIC50 is 5.04. On to `CCCCCCCCCCCCCC(=O)O[C@H](CCCCCCCCCCCCC)CC(=O)N[C@H]1[C@H](OC[C@H]2OC(=O)[C@H](NC(=O)C[C@H](O)CCCCCCCCCCCCC)[C@@H](OC(=O)C[C@H](O)CCCCCCCCCCCCC)[C@@H]2O)O[C@H](CO)[C@@H](O)[C@@H]1OC(=O)C[C@H](O)CCCCCCCCCCCCC`, for which the result was Active. `CCCCCCCCCCCCCCCCCCCCCCCCCCCC(=O)O[C@H](CCCCCCCCCCCCC)CC(=O)N[C@H]1[C@H](OC[C@H]2OC(=O)[C@H](NC(=O)C[C@H](O)CCCCCCCCCCCCC)[C@@H](OC(=O)C[C@H](O)CCCCCCCCCCCCC)[C@@H]2O)O[C@H](CO)[C@@H](O)[C@@H]1OC(=O)C[C@H](O)CCCCCCCCCCCCC`: the pIC50 was 5.12.
